Values of other authors in US6548045B2, “Nitroimidazole substituted porphyrin complex” (Photochemical Co., Ltd., priority 1999, dated 2003).

Columns and labels:
[1] = in vivo
[2] = test system: anoxic tissues in tumor; settings: animal experiment implanting tumor
[3] = test system: anoxic tissues in tumor; settings: in vivo

COCC(O)Cn1ccnc1[N+](=O)[O-] (stereo not drawn) [Misonidazole]
neurotoxicity [1]: high neurotoxin
efficacy compared with absence of the compound [2]: twice times more efficacies
efficacy in the human being [3]: no efficacy is observed
